This note sets out measurements from patent publication US11007524B2, “Automatic microfluidic system for rapid personalized drug screening and testing method for personalized antibiotic susceptibility” (National Tsing Hua University, priority 2019, dated 2021).

Values after ≈ are worked out from the molar mass of the structure shown. Bounds are passed on as bounds.

Assay [1] relates to vancomycin-intermediate Staphylococcus aureus (VISA). Kind of assay: Minimum inhibitory concentration by broth microdilution (Comparative Example 1). Type of assay: cell-based. The note with it: same conditions. The text has this: Furthermore, the present testing further includes Comparative Example 1.
For orientation: Broth dilution looks for growth in wells or tubes with falling amounts of substance.

Assay [2] shares this test system. Kind of assay: Minimum inhibitory concentration by automatic microfluidic system (Example 9), resazurin colour change. It counts as cell-based. Here is the method:
A determination of minimum inhibitory concentration is performed by using the microfluidic chip 100 of FIG. 1 in cooperated with the testing method 200 for personalized antibiotic susceptibility of FIG. 5. The details of the testing method 200 has been described as mentioned above so that the same process will not be further illustrated herein.
In experimental, the microfluidic chip 100 is divided into a reaction zone 1001 and a reaction zone 1002 along line 10-10 by using the fluid storage chamber 111a and the fluid storage chamber 111b as a center. The reaction zone 1001 is utilized for determining the minimum inhibitory concentration of vancomycin for the vancomycin-intermediate Staphylococcus aureus, and the reaction zone 1002 is utilized for determining the minimum inhibitory concentration of gentamicin for the vancomycin-intermediate Staphylococcus aureus. After 4 hours of incubation of the reaction solutions including the resazurin, with different concentrations, the color of the reaction solution will be gradually changed to red when the vancomycin-intermediate Staphylococcus aureus grows and can be observed directly through the microfluidic chip 100.
In such the example, the reference numerals of the reaction chambers 131 of the microfluidic chip 100 are reassigned to the reaction chambers 131a to 131l. […]
On the technique in general: The colour change of resazurin is a common sign of viable cells or microbes.

Consider `CN[C@H](CC(C)C)C(=O)N[C@H]1C(=O)N[C@@H](CC(N)=O)C(=O)N[C@H]2C(=O)N[C@H]3C(=O)N[C@H](C(=O)N[C@H](C(=O)O)c4cc(O)cc(O)c4-c4cc3ccc4O)[C@H](O)c3ccc(c(Cl)c3)Oc3cc2cc(c3O[C@@H]2O[C@H](CO)[C@@H](O)[C@H](O)[C@H]2O[C@H]2C[C@](C)(N)[C@H](O)[C@H](C)O2)Oc2ccc(cc2Cl)[C@H]1O` [Vancomycin, vancomycin], for which the MIC in assay [1] (Staphylococcus aureus) amounted to 2 µg/mL (≈ 1.38 µM); in assay [2] (Staphylococcus aureus, VISA, 4 h, read-out: minimum inhibitory concentration, Example 9), 2.16 µg/mL (≈ 1.49 µM).

Take gentamicin: in assay [1], the “minimum inhibitory concentration, Comparative Example 1” value was above 8 µg/mL. The “minimum inhibitory concentration, Example 9” value in assay [2] (microfluidic chip, VISA 1500 CFU, 3 μL reaction solution, 4 hours of incubation, resazurin) is above 7.52 µg/mL.
